According to PMC6780696, “New Peptides from The Marine-Derived Fungi Aspergillus allahabadii and Aspergillus ochraceopetaliformis” (Marine Drugs, 2019):
Positions of bridges follow the written chain, without caps; N, C: chain ends. Non-standard residues stand in square brackets, D forms with d. Residues, ends and D or L forms follow the SMILES beside them. NMeF = CN[C@@H](Cc1ccccc1)C(=O)O

What was measured:
[1] = test system: Staphylococcus epidermidis; set-up: method as in PMID 25001296; conditions: cited from earlier work
Bacillus cereus = test system: Bacillus cereus; set-up: method as in PMID 25001296; conditions: cited from earlier work
[2] = target: T1, S. aureus-derived recombinant SrtA (Staphylococcus aureus, UniProt Q2FV99); assay: biochemical
T1 construct: made in house; host or cells: E. coli

[3] = target: T2, recombinant ICL from C. albicans (Candida albicans, UniProt Q9P8Q7); assay: ICL inhibition assay; format: biochemical; conditions: 37 °C, 30 min
T2 construct: made in house
Procedure: The recombinant ICL from C. albicans was prepared and the inhibitory activity of the test compounds against ICL was determined by previously documented procedures. […] The increase in intensity of absorbance resulting from the formation of glyoxylate phenylhydrazone was observed using an UVmini-1240 spectrophotometer (SHIMADZU, Tokyo, Japan) at a wavelength of 324 nm. A known ICL inhibitor, 3-nitropropionic acid, was used as a reference control.

[4] = target: isocitrate lyase (ICL) derived from C. albicans; set-up: method as in PMID 31167388; conditions: previously reported; cited from earlier work

T1 sequence (Q2FV99 whole entry): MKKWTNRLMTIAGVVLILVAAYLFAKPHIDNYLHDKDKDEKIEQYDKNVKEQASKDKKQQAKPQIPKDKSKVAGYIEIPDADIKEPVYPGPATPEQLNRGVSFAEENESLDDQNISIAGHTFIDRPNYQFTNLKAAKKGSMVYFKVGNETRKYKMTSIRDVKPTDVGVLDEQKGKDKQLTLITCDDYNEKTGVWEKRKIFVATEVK
T2 sequence (Q9P8Q7 whole entry): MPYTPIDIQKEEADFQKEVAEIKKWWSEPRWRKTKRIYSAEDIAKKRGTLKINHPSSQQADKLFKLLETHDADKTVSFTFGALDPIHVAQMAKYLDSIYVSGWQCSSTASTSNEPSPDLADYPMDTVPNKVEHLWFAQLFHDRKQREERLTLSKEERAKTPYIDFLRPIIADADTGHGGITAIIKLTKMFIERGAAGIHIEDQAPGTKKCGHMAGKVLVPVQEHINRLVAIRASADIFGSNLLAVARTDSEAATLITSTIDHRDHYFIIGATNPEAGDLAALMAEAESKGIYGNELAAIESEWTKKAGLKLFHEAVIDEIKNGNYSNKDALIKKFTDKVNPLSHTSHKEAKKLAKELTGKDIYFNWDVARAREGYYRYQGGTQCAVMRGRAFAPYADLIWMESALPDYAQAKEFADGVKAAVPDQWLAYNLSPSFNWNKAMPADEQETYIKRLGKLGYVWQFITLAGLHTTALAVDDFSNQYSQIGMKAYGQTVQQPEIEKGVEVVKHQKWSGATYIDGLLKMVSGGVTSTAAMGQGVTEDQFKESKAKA

In the case of asperpeptide A, the MIC [1] is given as 12.5 µM and the MIC (Bacillus cereus) is given as 12.5 µM.

Molecule `CC(C)[C@@H]1NC(=O)[C@@H]2CCCN2C(=O)[C@H](Cc2ccc(O)cc2)NC(=O)[C@H](Cc2ccccc2)N(C)C(=O)[C@H](C)NC1=O` [Compound 2, JG002CPB] (cyclo(A[NMeF]YPV)) has an IC50 [2] of 53.1 µM and an IC50 [3] of 117 µM.

`CC(C)C[C@@H]1NC(=O)[C@@H]2CCCN2C(=O)[C@H](Cc2ccc(O)cc2)NC(=O)[C@H](Cc2ccccc2)N(C)C(=O)[C@H](C)NC1=O` [Compound 1, JG002CPA] (cyclo(A[NMeF]YPL)) gave an IC50 [2] of 70 µM.

For `CC(C)[C@@H]1NC(=O)[C@H](Cc2ccccc2)NC1=O` [cyclo(L-Phe-L-Val)], the IC50 [4] is given as 110 µM.

`COc1ccc2cc3[n+](cc2c1OC)CCc1cc2c(cc1-3)OCO2` [Berberine chloride] showed an IC50 [2] of 104 µM.

With `O=C(O)CC[N+](=O)[O-]` [3-Nitropropionic acid] the IC50 [3] was 18.5 µM.

Molecule `CC(=O)N[C@H](C(=O)N[C@@H](C(=O)N1CCC[C@H]1C(=O)N[C@@H](Cc1ccc(O)cc1)C(=O)N(C)[C@@H](Cc1ccccc1)C(=O)N[C@@H](C)C(=O)O)C(C)C)[C@@H](C)O` [Compound 4, FJ120DPB] (Ac-T[dV]PY[NMeF]A-OH) has an IC50 [2] of 77 µM.

For `CC(=O)N[C@@H]1C(=O)N[C@H](C(C)C)C(=O)N2CCC[C@H]2C(=O)N[C@@H](Cc2ccc(O)cc2)C(=O)N(C)[C@@H](Cc2ccccc2)C(=O)N[C@@H](C)C(=O)O[C@@H]1C` [Compound 3, FJ120DPA] (Ac-T[dV]PY[NMeF]A; ester 1-C), the IC50 [2] was 132 µM.
